According to patent US20190269703A1, “MATERIALS AND METHODS FOR TREATING CHRONIC COUGH” (Mayo Foundation for Medical Education and Research, priority 2016, published 2019):

Tests used:
[1] = Sedation / patient tolerance of the nasal spray in use; assay type: in vivo, human; conditions: 34 micrograms/spray (or 69 μg daily) to each nostril, triple combination nasal spray; 15,000 units dispensed
Description: A specially configured nasal atomizer having a large aerosol plume and a three inch stem was used to bypass the nasal valve area and deliver medication into the nasal cavity. Two sprays were administered to each nostril daily. Patient responses were evaluated after 4 to 6 weeks.
34 micrograms/spray (or 69 μg daily) to each nostril is […] less than the lowest dose (12.5 milligrams) of oral diphenhydramine.

[2] = system: postnasal drip; assay: Treatment of postnasal drip: nasal spray delivered into the nasal cavity, patient responses evaluated; assay type: in vivo, human; conditions: 34 μg/spray diphenhydramine in combination with an anticholinergic and a glucocorticosteroid (mometasone furoate 1.7 mg/5 mL, ipratropium bromide 1 mg/5 mL, diphenhydramine 1.7 mg/5 mL); two sprays to each nostril daily; evaluated after 4 to 6 weeks
Description: A composition including mometasone furoate (1.7 mg/5 mL), ipratropium bromide (1 mg/5 mL), and diphenhydramine (1.7 mg/5 mL) was prepared. A specially configured nasal atomizer having a large aerosol plume and a three inch stem was used to bypass the nasal valve area and deliver medication into the nasal cavity. Two sprays were administered to each nostril daily. Patient responses were evaluated after 4 to 6 weeks.

CN(C)CCOC(c1ccccc1)c1ccccc1 [Diphenhydramine, diphenhydramine]
sedation [1]: sedation has not been an issue
arresting postnasal drip [2]: effective
